What was measured:
m-cGAS = m-cGAS (Mus musculus, UniProt Q8C6L5); experiment: Cell-free mouse cGAS enzyme inhibition assay (ATP depletion, Kinase-Glo Max); format: biochemical; details: 1 h; for inhibition at 1 µM: read-out: m-cGAS, conc. 1 μM; for inhibition at 10 µM: read-out: m-cGAS, conc. 10 μM
Protocol: (§1) Cell-free mouse and human cGAS enzyme inhibition assay (Table 2). Activity of all compounds (in Table 1) against m-cGAS (30 nM) and or h-cGAS, (100 nM) was determined by measuring the conversion of ATP and GTP (100 μM each) to cGAMP in the presence of dsDNA (5 ug/mL) in a reaction buffer composed of Tris-HCl (20 mM, pH7.4), NaCl (150 mM), MnCl2 (0.2 mM, h-cGAS) or MgCl2 (5 mM, m-cGAS) and Tween-20 (0.01%), and the remaining ATP concentration using Kinase-Glo®Max Luminescent Kinase Assay (Promega, Madison, WI), as described (Lama, et. al., 2019). Briefly, 10 μl of a master mix of 0.4 mM ATP, 0.4 mM GTP, 0.02 mg/mL dsDNA in the reaction buffer supplemented with 2 mM DTT was added to reaction wells containing TDI-6570 or TDI-8246 (2× of the desired concentration) in the same buffer ([…]) using a Thermo 8-channel Multidrop Combi dispenser. Next, 10 μl of a 4×m-cGAS (0.120 μM) or h-cGAS (0.4 μM) solution in the reaction buffer supplemented with 2 mM DTT was added to appropriate wells. Similar sets of reactions without cGAS or the inhibitor was set by adding the buffer alone. The reactions with the plates sealed were incubated at 37° C. (1 hour for m-cGAS and 3 hours for h-cGAS) and stopped by addition of 40 μl of the Kinase-Glo®Max. The luminescence was recorded in relative light units (RLUs) using a Biotek Synergy H1 Hybrid plate reader (BioTek, Winooski, VT). […] All reactions were run in triplicates and calculated using GraphPad Prism 9. The values represent mean IC50±S.D.

h-cGAS = h-cGAS (Homo sapiens, UniProt Q8N884); experiment: Cell-free human cGAS enzyme inhibition assay (ATP depletion, Kinase-Glo Max); format: biochemical; details: 3 h; for inhibition at 1 µM: read-out: h-cGAS, conc. 1 μM; for inhibition at 10 µM: read-out: h-cGAS, conc. 10 μM
Protocol: as §1

IFNB = experiment: THP1-Dual cells transfected with DNA, Ifnb expression (Quantiluc); format: cell-based; details: Homo sapiens; for inhibition at 10 µM: THP-1, 10 μM; for inhibition at 30 µM: THP-1, 30 μM
Protocol: (§2) Evaluation of active cGAS inhibitors in THP1 cells (Table 3). Cellular activity of all compounds (in Table 3) was determined using THP1-Dual™ cells as described (Lama et. al., 2019). THP1-Dual™ cells (Invivogen) (50000 cells in 100 μl media) were seeded into each well of a 96-well plate and treated with compounds at various dilution for 4 hours. Subsequently, cells were transfected with DNA (2 ug/ml) and lipofectamine and incubate the cells were incubated overnight. Ifnb expression was measured in cell supernatant using Quantiluc, nfkb expression was determined using Quantiblue, and cell viability using Promega® CellTiter-Glo®.

NFkB-SEAP = experiment: THP1-Dual cells transfected with DNA, nfkb expression (Quantiblue); format: cell-based; details: Homo sapiens; for inhibition at 10 µM: THP-1, 10 μM; for inhibition at 30 µM: THP-1, 30 μM
Protocol: as §2

THP1 cells = experiment: THP1-Dual cells, cell viability (CellTiter-Glo); format: cell-based
Protocol: as §2

m-cGAS, sequence (Q8C6L5 whole entry): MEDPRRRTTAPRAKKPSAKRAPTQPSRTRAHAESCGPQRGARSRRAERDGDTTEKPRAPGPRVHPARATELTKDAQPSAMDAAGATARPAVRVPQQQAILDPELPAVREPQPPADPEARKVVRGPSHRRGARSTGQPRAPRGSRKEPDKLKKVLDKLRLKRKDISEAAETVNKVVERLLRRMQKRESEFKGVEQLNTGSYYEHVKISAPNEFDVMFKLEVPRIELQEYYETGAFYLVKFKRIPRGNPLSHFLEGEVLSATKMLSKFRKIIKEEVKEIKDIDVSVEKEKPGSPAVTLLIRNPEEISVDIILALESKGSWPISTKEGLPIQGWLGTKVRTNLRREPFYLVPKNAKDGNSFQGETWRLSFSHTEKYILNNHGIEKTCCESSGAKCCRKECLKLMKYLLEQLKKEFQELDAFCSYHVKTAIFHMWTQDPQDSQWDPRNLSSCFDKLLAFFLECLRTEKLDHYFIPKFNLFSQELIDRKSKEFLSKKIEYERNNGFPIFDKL
h-cGAS, sequence (Q8N884 whole entry): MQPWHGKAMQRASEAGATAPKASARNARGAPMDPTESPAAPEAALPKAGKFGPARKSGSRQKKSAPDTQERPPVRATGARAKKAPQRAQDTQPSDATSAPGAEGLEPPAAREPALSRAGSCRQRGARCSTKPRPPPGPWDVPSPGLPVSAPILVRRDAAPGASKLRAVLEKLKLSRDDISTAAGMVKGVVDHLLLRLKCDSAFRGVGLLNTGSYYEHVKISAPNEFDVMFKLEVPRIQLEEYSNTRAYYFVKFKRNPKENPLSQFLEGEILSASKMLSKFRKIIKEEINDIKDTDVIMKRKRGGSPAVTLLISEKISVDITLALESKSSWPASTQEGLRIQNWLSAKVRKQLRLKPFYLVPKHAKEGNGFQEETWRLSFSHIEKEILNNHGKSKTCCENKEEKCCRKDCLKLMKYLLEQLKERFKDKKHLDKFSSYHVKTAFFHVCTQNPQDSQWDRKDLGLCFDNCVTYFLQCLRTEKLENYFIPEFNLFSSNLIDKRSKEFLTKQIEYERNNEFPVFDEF

In the case of `NCC(=O)N1CCc2c(sc3c(Cl)c(Cl)cc(-c4ncccn4)c23)C1` [Compound 89], the inhibition at 1 µM (m-cGAS) is reported as 0 to 24%, the inhibition at 10 µM (m-cGAS) is reported as 25 to 49% and the inhibition at 1 µM (h-cGAS) is reported as 0 to 24%. It also gave an inhibition at 10 µM (h-cGAS) of 50 to 74%, an inhibition at 10 µM (IFNB) of under 24% and an inhibition at 30 µM (IFNB) of 50 to 74%. The inhibition at 10 µM (NFkB-SEAP) was under 24%, the inhibition at 30 µM (NFkB-SEAP) was 50 to 74% and the “Cell viability 10 μM” value (THP1 cells) was “+++ (+, ++, and +++ mean the compound respectively shows 25-49%; 50-74%; or 75-100% viability to cells)”. The “Cell viability 30 μM” value (THP1 cells) was “++ (+, ++, and +++ mean the compound respectively shows 25-49%; 50-74%; or 75-100% viability to cells)”.
Work on `Cn1c2c(c3c(Br)cc(Cl)c(Cl)c31)CN(C(=O)CN)CC2` [Compound 6] yielded an inhibition at 10 µM (m-cGAS) of 75 to 100%, an inhibition at 1 µM (h-cGAS) of 0 to 24% and an inhibition at 10 µM (h-cGAS) of 75 to 100%. For the same compound, the inhibition at 10 µM (IFNB) was under 24%, the inhibition at 30 µM (IFNB) was under 24% and the inhibition at 10 µM (NFkB-SEAP) was under 24%. The inhibition at 30 µM (NFkB-SEAP) was 25 to 49%, the “Cell viability 10 μM” value (THP1 cells) was “+++ (+, ++, and +++ mean the compound respectively shows 25-49%; 50-74%; or 75-100% viability to cells)” and the “Cell viability 30 μM” value (THP1 cells) was “+++ (+, ++, and +++ mean the compound respectively shows 25-49%; 50-74%; or 75-100% viability to cells)”.
For `NCC(=O)N1CCc2oc3c(Cl)c(Cl)cc(-c4cncnc4)c3c2C1` [Compound 32], the inhibition at 1 µM (m-cGAS) was 50 to 74%, the inhibition at 10 µM (m-cGAS) was 75 to 100% and the inhibition at 1 µM (h-cGAS) was 25 to 49%. The inhibition at 10 µM (h-cGAS) was 50 to 74%, the inhibition at 10 µM (IFNB) was under 24% and the inhibition at 30 µM (IFNB) was under 24%. For the same compound, the inhibition at 10 µM (NFkB-SEAP) was under 24%, the inhibition at 30 µM (NFkB-SEAP) was under 24% and the “Cell viability 10 μM” value (THP1 cells) was “+++ (+, ++, and +++ mean the compound respectively shows 25-49%; 50-74%; or 75-100% viability to cells)”. For the same compound, the “Cell viability 30 μM” value (THP1 cells) was “+++ (+, ++, and +++ mean the compound respectively shows 25-49%; 50-74%; or 75-100% viability to cells)”.
With `Nc1ccc(-c2cc(Cl)c(Cl)c3oc4c(c23)CN(C(=O)CO)CC4)cn1` [Compound 26] the inhibition at 10 µM (m-cGAS) was 25 to 49%, the inhibition at 1 µM (h-cGAS) was 50 to 74% and the inhibition at 10 µM (h-cGAS) was 75 to 100%. The inhibition at 10 µM (IFNB) was 50 to 74%, the inhibition at 30 µM (IFNB) was 75 to 100% and the “Cell viability 10 μM” value (THP1 cells) was “+++ (+, ++, and +++ mean the compound respectively shows 25-49%; 50-74%; or 75-100% viability to cells)”. For the same compound, the “Cell viability 30 μM” value (THP1 cells) was “+++ (+, ++, and +++ mean the compound respectively shows 25-49%; 50-74%; or 75-100% viability to cells)”.
For `Nc1ccc(-c2cc(Cl)c(Cl)c3sc4c(c23)CN(C(=O)[C@H]2CCCN2)CC4)cn1` [Compound 57], the inhibition at 10 µM (m-cGAS) was 0 to 24%, the inhibition at 10 µM (h-cGAS) was 50 to 74% and the inhibition at 10 µM (IFNB) was 75 to 100%. The inhibition at 30 µM (IFNB) was 75 to 100%, the “Cell viability 10 μM” value (THP1 cells) was “− (Cell viability <24%, in THP1 cells is expressed as “−”)” and the “Cell viability 30 μM” value (THP1 cells) was “− (Cell viability <24%, in THP1 cells is expressed as “−”)”.
`O=C(CO)N1CCc2sc3c(Cl)c(Cl)cc(-c4cn[nH]c4)c3c2C1` [Compound 51] was tested, and the inhibition at 10 µM (m-cGAS) was 0 to 24%, the inhibition at 1 µM (h-cGAS) was 0 to 24% and the inhibition at 10 µM (h-cGAS) was 25 to 49%. The inhibition at 10 µM (IFNB) was 25 to 49%, the inhibition at 30 µM (IFNB) was 75 to 100% and the “Cell viability 10 μM” value (THP1 cells) was “+++ (+, ++, and +++ mean the compound respectively shows 25-49%; 50-74%; or 75-100% viability to cells)”. For the same compound, the “Cell viability 30 μM” value (THP1 cells) was “+++ (+, ++, and +++ mean the compound respectively shows 25-49%; 50-74%; or 75-100% viability to cells)”.
Work on `Cn1ccc(-c2cc(Cl)c(Cl)c3sc4c(c23)CN(C(=O)CO)CC4)n1` [Compound 46] yielded an inhibition at 10 µM (m-cGAS) of 0 to 24%, an inhibition at 1 µM (h-cGAS) of 50 to 74% and an inhibition at 10 µM (h-cGAS) of 75 to 100%. The inhibition at 10 µM (IFNB) was 25 to 49%, the inhibition at 30 µM (IFNB) was 75 to 100% and the “Cell viability 10 μM” value (THP1 cells) was “+++ (+, ++, and +++ mean the compound respectively shows 25-49%; 50-74%; or 75-100% viability to cells)”. For the same compound, the “Cell viability 30 μM” value (THP1 cells) was “++ (+, ++, and +++ mean the compound respectively shows 25-49%; 50-74%; or 75-100% viability to cells)”.
`O=C(CO)N1CCc2sc3c(Cl)c(Cl)cc(-c4ccco4)c3c2C1` [Compound 52] gave an inhibition at 10 µM (m-cGAS) of 0 to 24%, an inhibition at 1 µM (h-cGAS) of 0 to 24% and an inhibition at 10 µM (h-cGAS) of 50 to 74%. The inhibition at 10 µM (IFNB) was 25 to 49%, the inhibition at 30 µM (IFNB) was 75 to 100% and the “Cell viability 10 μM” value (THP1 cells) was “+++ (+, ++, and +++ mean the compound respectively shows 25-49%; 50-74%; or 75-100% viability to cells)”. For the same compound, the “Cell viability 30 μM” value (THP1 cells) was “+++ (+, ++, and +++ mean the compound respectively shows 25-49%; 50-74%; or 75-100% viability to cells)”.

— patent US20250163052A1, “cGAS INHIBITORS AND USES THEREOF” (Cornell University, priority 2022, published 2025)
